Experimental findings from patent US10670605B2, “Cysteine reactive probes and uses thereof” (The Scripps Research Institute, priority 2015, dated 2020) are described below.

Common to all, as to assay: Competitive isoTOP-ABPP in situ (fragment-treated cells)
What all share (format): cell-based

The target of test [1] is T1, cysteines in MDA-MB-231 and Ramos cells (Homo sapiens, UniProt P13667).
T1 sequence (P13667 21-645): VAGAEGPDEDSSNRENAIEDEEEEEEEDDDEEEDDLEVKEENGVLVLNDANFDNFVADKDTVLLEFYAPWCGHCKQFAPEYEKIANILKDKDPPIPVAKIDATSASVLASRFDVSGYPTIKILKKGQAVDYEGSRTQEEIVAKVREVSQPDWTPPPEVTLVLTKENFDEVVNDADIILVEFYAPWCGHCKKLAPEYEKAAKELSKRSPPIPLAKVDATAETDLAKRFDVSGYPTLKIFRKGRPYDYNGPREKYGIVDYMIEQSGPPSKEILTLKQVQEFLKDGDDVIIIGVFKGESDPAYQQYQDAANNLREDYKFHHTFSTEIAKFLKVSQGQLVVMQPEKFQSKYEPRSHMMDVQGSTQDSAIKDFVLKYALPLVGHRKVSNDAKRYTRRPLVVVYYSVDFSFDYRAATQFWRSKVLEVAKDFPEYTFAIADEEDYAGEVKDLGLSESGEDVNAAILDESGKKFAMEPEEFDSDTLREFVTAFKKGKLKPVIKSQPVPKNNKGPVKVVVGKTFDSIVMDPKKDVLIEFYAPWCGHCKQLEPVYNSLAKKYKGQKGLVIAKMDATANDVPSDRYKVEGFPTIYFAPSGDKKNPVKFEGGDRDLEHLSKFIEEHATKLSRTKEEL
The settings on record: 200 μM, insitu.

For test [2], the target named is cysteines in MDA-MB-231 and Ramos cells (Homo sapiens, UniProt P15121). The settings on record: 200 μM, insitu.
Test [3] deals with T2, cysteines in MDA-MB-231 and Ramos cells (Homo sapiens, UniProt P30101).
T2 sequence (P30101 25-505): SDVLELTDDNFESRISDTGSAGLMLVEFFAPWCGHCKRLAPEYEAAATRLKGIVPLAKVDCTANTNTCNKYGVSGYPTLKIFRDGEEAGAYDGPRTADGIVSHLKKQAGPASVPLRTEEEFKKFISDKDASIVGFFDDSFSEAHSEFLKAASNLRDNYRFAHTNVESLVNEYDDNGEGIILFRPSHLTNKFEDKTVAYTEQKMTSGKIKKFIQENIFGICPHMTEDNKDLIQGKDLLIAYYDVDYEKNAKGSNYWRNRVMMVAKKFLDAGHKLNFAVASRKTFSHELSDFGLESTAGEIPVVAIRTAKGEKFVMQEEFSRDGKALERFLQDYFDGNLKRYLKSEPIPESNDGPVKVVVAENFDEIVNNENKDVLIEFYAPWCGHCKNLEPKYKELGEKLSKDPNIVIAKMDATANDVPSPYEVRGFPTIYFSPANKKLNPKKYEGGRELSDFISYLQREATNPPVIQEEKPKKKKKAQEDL
The settings on record: 200 μM, insitu.

For test [4], the target named is T3, cysteines in MDA-MB-231 and Ramos cells (Homo sapiens, UniProt Q9BVC5).
T3 sequence (Q9BVC5 1-232): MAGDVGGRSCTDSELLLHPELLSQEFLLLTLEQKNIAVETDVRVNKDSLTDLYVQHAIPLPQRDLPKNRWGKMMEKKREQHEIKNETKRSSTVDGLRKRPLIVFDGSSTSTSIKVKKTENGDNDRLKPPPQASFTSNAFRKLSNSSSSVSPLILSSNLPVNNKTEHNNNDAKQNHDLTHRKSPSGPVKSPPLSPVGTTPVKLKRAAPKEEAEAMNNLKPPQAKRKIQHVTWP
The note with it: 200 μM, insitu.

The target of test [5] is T4, cysteines in MDA-MB-231 and Ramos cells (Homo sapiens, UniProt Q9HCC0).
T4 sequence (Q9HCC0 23-563): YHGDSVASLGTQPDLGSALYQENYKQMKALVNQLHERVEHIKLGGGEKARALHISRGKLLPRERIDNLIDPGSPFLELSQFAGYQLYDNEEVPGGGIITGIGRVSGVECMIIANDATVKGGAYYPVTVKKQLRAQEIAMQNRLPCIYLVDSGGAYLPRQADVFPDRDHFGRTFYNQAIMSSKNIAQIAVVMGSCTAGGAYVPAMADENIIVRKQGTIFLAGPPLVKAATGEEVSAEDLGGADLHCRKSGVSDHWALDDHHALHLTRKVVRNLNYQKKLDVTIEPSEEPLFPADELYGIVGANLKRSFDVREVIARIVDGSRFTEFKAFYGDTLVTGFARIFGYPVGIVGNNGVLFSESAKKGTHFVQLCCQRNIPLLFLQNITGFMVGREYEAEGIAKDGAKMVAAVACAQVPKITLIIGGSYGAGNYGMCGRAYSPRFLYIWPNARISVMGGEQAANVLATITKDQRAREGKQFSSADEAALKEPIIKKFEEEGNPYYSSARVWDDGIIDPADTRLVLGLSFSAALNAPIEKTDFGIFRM
The settings on record: 200 μM, insitu, 231.

For test [6], the target named is T5, cysteines in MDA-MB-231 and Ramos cells (Homo sapiens, UniProt Q99439).
T5 sequence (Q99439 1-309): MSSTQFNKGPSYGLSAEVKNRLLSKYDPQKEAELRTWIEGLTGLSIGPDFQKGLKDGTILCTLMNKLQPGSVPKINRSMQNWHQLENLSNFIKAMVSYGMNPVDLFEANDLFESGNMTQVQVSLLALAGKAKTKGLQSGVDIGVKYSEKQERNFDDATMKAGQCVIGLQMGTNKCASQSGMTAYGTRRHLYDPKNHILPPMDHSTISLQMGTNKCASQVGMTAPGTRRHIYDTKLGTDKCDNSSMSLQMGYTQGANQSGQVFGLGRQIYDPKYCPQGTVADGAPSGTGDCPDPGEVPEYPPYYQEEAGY
The note with it: 200 μM, insitu.

Test [7] deals with T6, cysteines in MDA-MB-231 and Ramos cells (Homo sapiens, UniProt Q9Y3A3).
T6 sequence (Q9Y3A3 1-225): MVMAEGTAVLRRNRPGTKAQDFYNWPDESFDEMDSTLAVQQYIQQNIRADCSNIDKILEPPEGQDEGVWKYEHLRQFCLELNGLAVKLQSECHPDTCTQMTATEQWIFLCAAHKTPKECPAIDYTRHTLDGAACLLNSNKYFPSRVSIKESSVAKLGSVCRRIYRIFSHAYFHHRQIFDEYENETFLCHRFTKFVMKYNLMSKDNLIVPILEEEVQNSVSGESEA
The note with it: 200 μM, insitu.

For `CC(C)CCOCCNC(=O)CCl` [compound 27], in test [1] (231), the “isoTOP-ABPP ratio P13667_C206” value was 1.0 and the “isoTOP-ABPP ratio P13667_C555” value is 1.2. In addition, the “isoTOP-ABPP ratio P15121_C299” value in test [2] (231) is reported as 0.5. Besides, in test [3] (231), the “isoTOP-ABPP ratio P30101_C57” value is given as 1.1 and the “isoTOP-ABPP ratio P30101_C406” value worked out at 1.2. Further, in test [4] (231), the “isoTOP-ABPP ratio Q9BVC5_C10” value is on record as 1.1. In addition, the “isoTOP-ABPP ratio Q9HCC0_C216” value in test [5] came out at 1.0.
Consider `COc1ccccc1OCCNC(=O)CCl` [compound 28], for which the “isoTOP-ABPP ratio P13667_C206” value in test [1] (231) came out at 1.3. Moreover, the “isoTOP-ABPP ratio P15121_C299” value in test [2] (231) came to 0.8. For the same compound, the “isoTOP-ABPP ratio P30101_C57” value in test [3] (231) is 1.6. In test [6] (231), the “isoTOP-ABPP ratio Q99439_C164” value is given as 0.9. Moreover, the “isoTOP-ABPP ratio Q9BVC5_C10” value in test [4] (231) came out at 0.9.
With `O=C(CCl)N1CCN(CC(=O)N2CCOCC2)CC1` [compound 29], in test [1] (ramos), the “isoTOP-ABPP ratio P13667_C206” value was determined as 1.4 and the “isoTOP-ABPP ratio P13667_C555” value was 1.5. In test [2] (ramos), the “isoTOP-ABPP ratio P15121_C299” value is 1.1. Besides, in test [3] (ramos), the “isoTOP-ABPP ratio P30101_C57” value was 1.2 and the “isoTOP-ABPP ratio P30101_C406” value is recorded as 1.5. In addition, the “isoTOP-ABPP ratio Q99439_C164” value in test [6] (ramos) amounted to 1.0. Moreover, the “isoTOP-ABPP ratio Q9BVC5_C10” value in test [4] (ramos) was 1.8. For the same compound, the “isoTOP-ABPP ratio Q9Y3A3_C134” value in test [7] (ramos) amounted to 1.2.
With `C=CC(=O)N(Cc1cccnc1)c1cc(C(F)(F)F)cc(C(F)(F)F)c1` [compound 31], the results for the “isoTOP-ABPP ratio P13667_C206” value in test [1] (231) and in test [1] (ramos) were 0.8 and 1.1, respectively. Besides, the “isoTOP-ABPP ratio P13667_C555” value in test [1] (231) came to 0.8; in test [1] (ramos), 1.1. Besides, the “isoTOP-ABPP ratio P15121_C299” value stood at 0.8 in test [2] (231) and 1.3 in test [2] (ramos). The “isoTOP-ABPP ratio P30101_C57” value in test [3] (231) is 0.9. Moreover, the “isoTOP-ABPP ratio P30101_C406” value in test [3] (231) was found to be 0.8; in test [3] (ramos), 1.1. In addition, the “isoTOP-ABPP ratio Q99439_C164” value in test [6] (231) worked out at 0.7; in test [6] (ramos), 1.3. In addition, the figures for the “isoTOP-ABPP ratio Q9Y3A3_C134” value in test [7] (231) and in test [7] (ramos) were 1.0 and 1.8, respectively.
As for `C=CC(=O)Nc1cc(F)c(N2CCN(C(=O)OC(C)(C)C)CC2)c(F)c1` [compound 38], in test [1] (231), the “isoTOP-ABPP ratio P13667_C206” value was determined as 0.9 and the “isoTOP-ABPP ratio P13667_C555” value is listed as 0.8. The “isoTOP-ABPP ratio P15121_C299” value in test [2] (231) is given as 1.0. Besides, in test [3] (231), the “isoTOP-ABPP ratio P30101_C57” value was 0.9 and the “isoTOP-ABPP ratio P30101_C406” value came to 0.8. For the same compound, in test [6] (231), the “isoTOP-ABPP ratio Q99439_C164” value was found to be 1.5. The “isoTOP-ABPP ratio Q9BVC5_C10” value in test [4] (231) came to 0.9. The “isoTOP-ABPP ratio Q9Y3A3_C134” value in test [7] (231) was 1.0.
Take `O=C(CCl)Nc1cccc2ncccc12` [compound 51]: in test [1] (231), the “isoTOP-ABPP ratio P13667_C206” value is on record as 5.3 and the “isoTOP-ABPP ratio P13667_C555” value is 6.0. The “isoTOP-ABPP ratio P15121_C299” value in test [2] (231) came out at 0.9. Moreover, the “isoTOP-ABPP ratio P30101_C406” value in test [3] (231) came to 6.0. Also, the “isoTOP-ABPP ratio Q9BVC5_C10” value in test [4] (231) is on record as 1.0. Also, in test [5], the “isoTOP-ABPP ratio Q9HCC0_C216” value is reported as 0.9.
